Reference: patent US11812746B2, “Method of controlling fungal infections in plants” (THE STATE OF ISRAEL, MINISTRY OF AGRICULTURE & RURAL …, priority 2016, dated 2023)

Assays:
[1] = system: B. cinerea; assay: Cut Ruscus branches drenched or dipped in Phe, leaves wounded and inoculated with B. cinerea; type: in vivo, Botrytis cinerea; conditions: whole branches dipped for an hour in 6 mM
Experimental: Ruscus branches serve as an ornamental decorative. These plants are very susceptible to Botrytis. Cut branches were treated with Phe either by drenching the tip of the cut branch in the Phe solution (FIG. 4B), or dipping the whole cut branch in Phe solution for an hour before dipping it in water and inoculating with botrytis. In both treatments the concentration used was 6 mM phenylalanine, and for the drenching treatment an additional concentration of 20 mM was added (FIG. 4A). For the dipping experiment 50 ppm T.O.G-6 was added to the Phe solution to prevent bacterial growth during the days of the experiment. Control branches were drenched in water and dipped in water with 50 ppm T.O.G-6. Ruscus leaves were wounded and inoculated with B. cinerea as described in the above Examples. Decay area (mm*2) results are presented as averages of 10 replications with each being a leaf from one of 10 branches±SE.

[2] = system: Sclerotinia sclerotiorum; assay: Tomato leaves, white rot after spray or drench treatment; type: in vivo; conditions: spray and drench, 4 mM
Experimental: Phe concentration used was 4 mM. Results are presented by disease severity scoring of AUDPC (area under disease progress curve during 15 days after infection) where the severity is marked by units of rot area (mm^2) multiplied by the time of incubation.

[3] = system: Pythium aphanidermatum; assay: Cucumber plantlets, damping off disease after drench; type: in vivo; conditions: 4 mM drench
Experimental: Phe concentration used was 4 mM. Results are presented by the percentage of dead plants incidence (FIG. 9A). FIG. 9B: control treatment=lower row and Phe treatment=upper row.
Cucumber plantlets cv. Bet Alpha and grown in peat based growing medium were treated either by drenching 4 mM phenylalanine solution, 10 ml per pot containing 4 plants each. and the percent plantlets that survived was determined in each treatment. […] FIG. 9B presents two pots of each treatment; Pots in the lower row were not treated and pots in upper row were treated with 4 mM Phe.

[4] = system: B. cinerea; assay: Whole petunia plants sprayed or pots drenched, leaves inoculated with B. cinerea; type: in vivo, Botrytis cinerea; conditions: for B. cinerea infection (decay area): 0.5 mM, spraying
Experimental: Inoculation with B. cinerea was performed 3 days after Phe treatment. In this case only one Phe treatment was performed however multiple treatments can be used e.g., first-three days prior to inoculation and a second one on the day of inoculation (data not shown but results are similar). 18 leaves were inoculated with B. cinerea, as described above. The plants were covered with a nylon bag and kept in the light and 22° C. (as above).
Commercial petunia plants (‘Dream Heaven’) were treated as described above in Example 3, either by spraying the plants (FIG. 3A) or drenching the pots (FIG. 3B), this time with increasing concentrations of Phe (6-50 mM).

[5] = system: Botrytis cinerea strain BO-05; assay: Detached petunia leaves dipped in Phe, wound inoculated with B. cinerea conidia; type: in vivo; conditions: 15 mM Phe dip, 7 days post inoculation, vs non-treated controls
Experimental: Petunia (Petunia×hybrida) V26 variety, and a commercial white flowered cultivar (Dream White) cultivars were used. Petunia plants were grown as described in Oliva et al., (2015). Arabidopsis plants were grown as described in Tzin et al., (2012).
Conidia of Botrytis cinerea strain BO-05 were grown on PDA medium for 10 days. Conidia were gently collected from the plate in sterile water and were diluted to 10^6 conidia/ml. Fresh leaves of similar age and size of Petunia or Arabidopsis were detached from the plant, washed with water and placed in a humid chamber, under artificial light at 22° C. The upper side of the leaves was wounded (1-2 mm) and 5 μl drops of conidia suspension at a concentration of 10^6 conidia/ml were placed on the artificial wound. Decay diameter was measured following inoculation in specific days post inoculation (dpi) as detailed in the results.
Petunia leaves were dipped for 10 min in double distilled water with 0.02% Silwett L-77 surfactant supplemented either with 15 mM or 0 mM phenylalanine. Leaves were then placed in a humid box, and wound inoculated with B. cinerea was performed as described above.
In an independent experiment the decay diameter of detached leaves of wild type petunia (V26 cultivar) treated with 15 mM Phe or with […]. […]
Necrotic area was measured at 3, 4 and 7 days post inoculation (dpi). […]

[6] = system: Sclerotinia sclerotiorum; assay: Sweet basil plants in pots, white rot after mycelium disc inoculation; type: in vivo; conditions: 4.1 mM, spray or drench
Experimental: Phe concentration used was 4.1 mM. Results are presented by disease severity scoring of AUDPC (area under disease progress curve during 6 days after infection) where the severity is marked by units of rot diameter (mm) multiplied by the time of incubation.
Sweet basil plants in pots were treated with 4.1 mM Phe as described for tomato, and inoculated with a S. sclerotiorum mycelium disc from 4 days potato dextrose agar culture (White rot), related to botrytis, both being from the Ascomycota division.

[7] = system: Alternaria alternata; assay: Postharvest avocado fruit dip, inoculation with Alternaria alternata; type: in vivo; conditions: avocado 'Ettinger', dip 30 seconds at 1-4 mM, 6 days post inoculation, 23° C.
Experimental: FIG. 8 are images of avocado fruits of the cultivar ‘Ettinger’ dipped in water or 1 mM or 4 mM phenylalanine for 30 seconds and stored for one day at 5° C. Then the avocado fruit were inoculated by wounding at the fruit equatorial with […] of spore suspension of Alternaria alternata at the concentration of 10^5 conidia/ml at two sides of the fruit. The fruits were stored at 23° C. The decay area was monitored during 6 days post inoculation. Clearly, the fruit treated with Phe solutions, postharvest show
Avocado fruits of the cultivar ‘Ettinger’ were dipped in water or 1 mM or 4 mM phenylalanine for 30 seconds and stored for one day at 5° C. Then the avocado fruit were inoculated at the fruit equatorial with Alternaria alternata at the concentration of 10^5 conidia/ml at two sides of the fruit. The decay area was monitored during 6 days post inoculation, while incubation at 23° C.

[8] = system: Plenodomus tracheiphilus syn Phoma tracheiphila; assay: Lemon plants in pots, mal secco disease after leaf wounding and conidia infection; type: in vivo; conditions: 4 mM, drenching 10 ml per pot or spraying
Experimental: Phe concentration used was 4 mM. Results are presented by disease incidence of infection sites as percent resulting from drench treatment (lower FIG. 7A) and spray treatment (upper FIG. 7A)
Lemon plants in pots were treated with 4 mM Phe water solutions either by drenching 10 ml of solution per pot or spraying, as described for tomato. Infection was carried out by conidia suspension of Plenodomus tracheiphilus after leaf wounding by a needle. Disease incidence was evaluated according to the amount of successful infection sites on the infected leaves and presented as percent of infected leaves.

[9] = system: Botrytis cinerea (isolate BcI16); assay: Gray mold on attached leaves of tomato plants treated by spray or drench; type: in vivo; conditions: for B. cinerea infection (disease severity): 0.5 mM, spraying
Experimental: Tomato plants (tomato cultivar-Brigate) were grown from seeds in a nursery and transplanted into 1 liter pots at 40 to 50 days following seeding in an unheated greenhouse. Plants were fertilized proportionally with drippers 2-3 times per day with 5:3:8 NPK fertilizer (irrigation water was planned to have total N, P and K concentrations of 120, 30 and 150 mg/L, respectively; EC 2.2 dS/m), allowing for 25-50% drainage. Plants were maintained at 20-30° C. with natural light, and relative humidity of 50-90% in a pest- and disease-free greenhouse during the growth period and then transferred to an area where disease was allowed to develop following pathogen infection on intact leaves as described below.
Botrytis cinerea [Pers.:Fr. [Teleomorph: Botryotinia fuckeliana (de Bary) Whetzel] (isolate BcI16; [Swartzberg D. et al., Eur. J. Plant Pathol., 2008, 120:289-297])] was cultured on potato dextrose agar (PDA, Difco, Detroit, MI) in 90 mm diam. petri plates containing 15 ml PDA each and incubated at 20° C. The inoculum was maintained on PDA and transferred every two weeks. Gray mold conidia were harvested from 10 to 14 day-old cultures by agitating 1 cm^2 of agar bearing mycelium and conidia in a glass tube with tap water. The suspension was then filtered through cheesecloth. The concentration of conidia was determined using a haemocytometer and a light microscope, and adjusted to 5×10^5 conidia/ml. Since B. cinerea conidia need carbon and phosphate for germination and penetration, 0.1% glucose was added to the final conidial suspension together with 0.1% KH2PO4.
Plant attached tomato leaves were examined. Whole plants were kept in a humidity chamber at 22±1° C., 97±3% RH, and 1020 lux light intensity. Plants were infected by placing 10 μL drops of a 5×10^5 conidia/ml suspension, 5 drops/leaf (one drop on each leaflet), on two mature leaves.
Disease severity was evaluated on each plant using a pictorial key; 0=no infection (infection site is symptomless) and 100=all infection site fully covered by gray mold symptoms. The analyses were performed in the mentioned plants.
Phenylalanine treatment consisted of either spray or drench at concentrations of 0.5-4.1 mM administrated 3 and 0 days before infection with B. cinerea. Control plants were treated by water and kept under the same conditions as mentioned above.
Treatments in experiments were replicated 5 times. Replicates of each treatment were arranged randomly. Disease severity data in percentages were arcsin-transformed before further analysis. Disease severity data were analyzed using ANOVA and Fisher's protected LSD test and disease levels were statistically separated (P≤0.05) following a one-way analysis of variance.
Specifically, tomato plants were sprayed with increasing concentrations of Phe solutions (0.5-30 mM aquatic solution of Phe, no detergent) and percent disease severity was determined 11 days following treatment.

Compound	resistance to botrytis (decay area) [1]	resistance of tomato leaves to white rot [2]	tolerance to Pythium aphanidermatum (percentage of dead plants) [3]	resistance of the plants to B. cinerea at higher concentrations ([4]; petunia 'Dream Heaven', spray or drench, 6-50 mM)	B. cinerea infection (decay area) ([4]; petunia)	decay area ([4]; petunia, 35 and 50 mM, 7 days after spraying and 10 days after drenching)	degree of resistance, 4.1 mM compared with 6 mM ([4]; whole petunia plants, 4.1 mM Phe vs 6 mM Phe)	tolerance to B. cinerea (decay area) ([4]; whole petunia plants, spraying or drenching, 6 mM, inoculation 3 days after treatment)	diameter of decay [5]	disease symptoms (white rot) [6]	area of brown spots [7]	resistance of the plant leaves to the fungus (disease incidence) [8]	effect of adding a surfactant on resistance to B. cinerea ([9]; 0.5 mM Phe with 0.01% Tween 80 vs without)	B. cinerea infection (disease severity) [9]	disease severity (gray mold) ([9]; drench to the root zone, 0.5 to 4.1 mM)	duration of resistance ([9]; spray, 20 and 30 mM (results not shown))	disease severity (gray mold) ([9]; sprayed on the plants, 1.0 to 4.1 mM)
N[C@@H](Cc1ccccc1)C(=O)O [Phe, Phenylalanine]	increased resistance of the plants to botrytis significantly	increase the resistance	increased tolerance	increased resistance	reduced B. cinerea infection	no increased decay area	a little lower	Increases Tolerance	significantly smaller	significant reduction in disease symptoms	reduced the area of brown spots caused by Alternaria alternata by four folds	increased the resistance	improved the effect of increased resistance	reduced B. cinerea infection	reduced significantly	increased resistance for a longer period of time	reduced significantly
N[C@@H](Cc1ccc(O)cc1)C(=O)O [Tyr, Tyrosine]	–	–	–	–	reduced B. cinerea infection	–	–	–	–	–	–	–	–	reduced B. cinerea infection	–	–	–
